ChEMBL document CHEMBL1287704, “Synthesis and biological evaluation of novel leonurine-SPRC conjugate as cardioprotective agents” (Bioorg Med Chem Lett, 2010)
Active and inactive are the calls of the source. No cut-off for these calls is given here.

Key:
Type in all cases: functional, cell-based
[1] = Cardioprotective activity against hypoxia-induced neonatal rat ventricular myocytes damage assessed as decrease of LDH release at 1 uM treated 12 hrs before hypoxia challenge measured after 5 hrs; conditions: Ventricular myocyte
[2] = Cardioprotective activity against hypoxia-induced neonatal rat ventricular myocytes damage assessed as increase in hydrogen sulfide level at 1 uM treated 12 hrs before hypoxia challenge measured after 5 hrs; conditions: Ventricular myocyte
Ventricular myocyte [3] = assay: Cardioprotective activity against hypoxia-induced neonatal rat ventricular myocytes damage assessed as increased cell viability at 1 uM treated 12 hrs before hypoxia challenge measured after 5 hrs by MTT assay
[4] = Cardioprotective activity against hypoxia-induced neonatal rat ventricular myocytes damage assessed as decrease of creatine kinase release at 1 uM treated 12 hrs before hypoxia challenge measured after 5 hrs; conditions: Ventricular myocyte
Ventricular myocyte [5] = assay: Cardioprotective activity against hypoxia-induced neonatal rat ventricular myocytes damage assessed as increased cell viability at 10 uM treated 12 hrs before hypoxia challenge measured after 5 hrs by MTT assay
[6] = Cardioprotective activity against hypoxia-induced neonatal rat ventricular myocytes damage assessed as increase in hydrogen sulfide level at 10 uM treated 12 hrs before hypoxia challenge measured after 5 hrs; conditions: Ventricular myocyte
[7] = Cardioprotective activity against hypoxia-induced neonatal rat ventricular myocytes damage assessed as decrease of creatine kinase release at 10 uM treated 12 hrs before hypoxia challenge measured after 5 hrs; conditions: Ventricular myocyte
[8] = Cardioprotective activity against hypoxia-induced neonatal rat ventricular myocytes damage assessed as decrease of LDH release at 10 uM treated 12 hrs before hypoxia challenge measured after 5 hrs; conditions: Ventricular myocyte
[9] = Cardioprotective activity against hypoxia-induced neonatal rat ventricular myocytes damage assessed as increase in superoxide dismutase activity against 0.1 uM treated 12 hrs before hypoxia challenge measured after 5 hrs; conditions: Ventricular myocyte
[10] = Cardioprotective activity against hypoxia-induced neonatal rat ventricular myocytes damage assessed as decrease in malondialdehyde level at 0.1 uM treated 12 hrs before hypoxia challenge measured after 5 hrs; conditions: Ventricular myocyte
[11] = Cardioprotective activity against hypoxia-induced neonatal rat ventricular myocytes damage assessed as decrease of creatine kinase release at 0.1 uM treated 12 hrs before hypoxia challenge measured after 5 hrs; conditions: Ventricular myocyte
[12] = Antiapoptotic activity against hypoxia-induced neonatal rat ventricular myocytes damage assessed as decrease in nuclei-shrunk at 0.1 uM using Hoechst 33258 staining by fluorescence microscopy; conditions: Ventricular myocyte
[13] = Cardioprotective activity against hypoxia-induced neonatal rat ventricular myocytes damage assessed as decrease of LDH release at 0.1 uM treated 12 hrs before hypoxia challenge measured after 5 hrs; conditions: Ventricular myocyte
Ventricular myocyte [14] = assay: Cardioprotective activity against hypoxia-induced neonatal rat ventricular myocytes damage assessed as increased cell viability at 0.1 uM treated 12 hrs before hypoxia challenge measured after 5 hrs by MTT assay
[15] = Cardioprotective activity against hypoxia-induced neonatal rat ventricular myocytes damage assessed as increase in hydrogen sulfide level at 0.1 uM treated 12 hrs before hypoxia challenge measured after 5 hrs; conditions: Ventricular myocyte
[16] = Antiapoptotic activity against hypoxia-induced neonatal rat ventricular myocytes damage assessed as decrease in nuclear condensation at 0.1 uM using Hoechst 33258 staining by fluorescence microscopy; conditions: Ventricular myocyte

Structure (SMILES) | Activity [1] | Activity [2] | Activity (Ventricular myocyte [3]) | Activity [4] | Activity (Ventricular myocyte [5]) | Activity [6] [µmol/L] | Activity [7] | Activity [8] | Activity [9] | Activity [10] | Activity [11] | Activity [12] | Activity [13] | Activity (Ventricular myocyte [14]) | Activity [15] [µmol/L] | Activity [16]
COc1cc(C(=O)OCCCCNC(=N)N)cc(OC)c1O | Active | inactive | Active | Active |  |  |  |  |  |  |  |  |  |  |  | 
C#CCSC[C@H](N)C(=O)O |  |  |  |  | Active | 20.2 | Active | Active |  |  |  |  |  |  |  | 
C#CCSC[C@H](N)C(=O)Oc1c(OC)cc(C(=O)OCCCCNC(=N)N)cc1OC | Active |  | Active | Active | Active |  | Active | Active | Active | Active | Active | Active | Active | Non-toxic | 21.5 | Active
